This is an account of results in ChEMBL document CHEMBL3046289, “Synthesis and in vitro antimicrobial activity of some newer quinazolinonesulfonamide linked hybrid heterocyclic entities derived from glycine” (2013).

For orientation: MIC means the lowest concentration found to suppress growth.

Type in all cases: functional
One experiment relates to Klebsiella pneumoniae. In words: Antibacterial activity against Klebsiella pneumoniae MTCC 139 assessed as growth inhibition after 24 hr by broth microdilution method. The conditions noted are these: MTCC 139, 24 h. For orientation: Dilution methods test growth across graded concentrations, often in twofold steps.
For the next experiment, the system named is Escherichia coli. In words: Antibacterial activity against Escherichia coli MTCC 443 assessed as growth inhibition after 24 hr by broth microdilution method. The conditions noted are these: MTCC 443, 24 h.
Another experiment relates to Staphylococcus aureus. In words: Antibacterial activity against Staphylococcus aureus MTCC 2940 assessed as growth inhibition after 24 hr by broth microdilution method. The conditions noted are these: MTCC 2940, 24 h.
The next experiment concerns Bacillus cereus. In words: Antibacterial activity against Bacillus cereus MTCC 1305 assessed as growth inhibition after 24 hr by broth microdilution method. The conditions noted are these: MTCC 1305, 24 h.
Another experiment concerns Aspergillus niger. In words: Antifungal activity against Aspergillus niger MTCC 282 assessed as growth inhibition after 48 hr by broth microdilution method. The conditions noted are these: MTCC 282, 48 h.
A further experiment deals with Candida albicans. In words: Antifungal activity against Candida albicans MTCC 227 assessed as growth inhibition after 48 hr by broth microdilution method. The conditions noted are these: MTCC 227, 48 h.
For a further experiment, the system named is Pseudomonas aeruginosa. In words: Antibacterial activity against Pseudomonas aeruginosa MTCC 1688 assessed as growth inhibition after 24 hr by broth microdilution method. The conditions noted are these: MTCC 1688, 24 h.

Structures are written as SMILES. Values after ≈ are worked out from the molar mass of the structure shown.

In the case of `COc1cccc(-n2c(CNS(=O)(=O)c3ccc(N)cc3)nc3ccccc3c2=O)c1`, the MIC was 90 µg/mL (≈ 206 µM) in the experiment with Klebsiella pneumoniae; 60 µg/mL (≈ 137 µM) with Escherichia coli; 80 µg/mL (≈ 183 µM) in the experiment on Staphylococcus aureus; 75 µg/mL (≈ 172 µM) in the experiment with Bacillus cereus; 50 µg/mL (≈ 115 µM) in the experiment on Aspergillus niger; 50 µg/mL (≈ 115 µM) in the experiment on Candida albicans. Besides, the MIC with Pseudomonas aeruginosa was 85 µg/mL (≈ 195 µM).
Consider `CC(=O)Nc1ccc(S(=O)(=O)NCc2nc3ccccc3c(=O)n2-c2ccccc2C)cc1`, for which the MIC in the experiment with Klebsiella pneumoniae came to 125 µg/mL (≈ 270 µM); in the experiment with Escherichia coli, 90 µg/mL (≈ 195 µM); in the experiment on Staphylococcus aureus it was 100 µg/mL (≈ 216 µM); in the experiment with Bacillus cereus, 115 µg/mL (≈ 249 µM); with Aspergillus niger, 80 µg/mL (≈ 173 µM); in the experiment with Candida albicans, 90 µg/mL (≈ 195 µM). In addition, the minimum inhibitory concentration (MIC) in the experiment on Pseudomonas aeruginosa turned out to be 120 µg/mL (≈ 259 µM).
For the compound `COc1ccc(-n2c(CNS(=O)(=O)c3ccc(N)cc3)nc3ccccc3c2=O)cc1`, the MIC is 75 µg/mL (≈ 172 µM) in the experiment on Klebsiella pneumoniae; 50 µg/mL (≈ 115 µM) in the experiment on Escherichia coli; 60 µg/mL (≈ 137 µM) in the experiment on Staphylococcus aureus; 70 µg/mL (≈ 160 µM) in the experiment with Bacillus cereus; 45 µg/mL (≈ 103 µM) with Aspergillus niger; 55 µg/mL (≈ 126 µM) in the experiment with Candida albicans. For the same compound, the MIC in the experiment with Pseudomonas aeruginosa was 75 µg/mL (≈ 172 µM).
In the case of `CC(=O)Nc1ccc(S(=O)(=O)NCc2nc3ccccc3c(=O)n2-c2cccc(Br)c2)cc1`, the minimum inhibitory concentration (MIC) was 90 µg/mL (≈ 171 µM) in the experiment on Klebsiella pneumoniae; 70 µg/mL (≈ 133 µM) in the experiment with Escherichia coli; 65 µg/mL (≈ 123 µM) in the experiment on Staphylococcus aureus; 90 µg/mL (≈ 171 µM) with Bacillus cereus; 55 µg/mL (≈ 104 µM) with Aspergillus niger; 70 µg/mL (≈ 133 µM) in the experiment on Candida albicans. Moreover, the MIC in the experiment on Pseudomonas aeruginosa was found to be 70 µg/mL (≈ 133 µM).
Regarding `COc1ccccc1-n1c(CNS(=O)(=O)c2ccc(N)cc2)nc2ccccc2c1=O`, the minimal inhibitory concentration (MIC) with Klebsiella pneumoniae amounted to 95 µg/mL (≈ 218 µM); in the experiment with Escherichia coli, 65 µg/mL (≈ 149 µM); with Staphylococcus aureus, 85 µg/mL (≈ 195 µM); in the experiment with Bacillus cereus, 80 µg/mL (≈ 183 µM); with Aspergillus niger, 55 µg/mL (≈ 126 µM); with Candida albicans, 65 µg/mL (≈ 149 µM). Besides, the MIC with Pseudomonas aeruginosa was 80 µg/mL (≈ 183 µM).
With `COc1ccc(-n2c(CNS(=O)(=O)c3ccc(NC(C)=O)cc3)nc3ccccc3c2=O)cc1`, the minimum inhibitory concentration (MIC) in the experiment with Klebsiella pneumoniae is 100 µg/mL (≈ 209 µM); in the experiment on Escherichia coli it was 50 µg/mL (≈ 104 µM); in the experiment on Staphylococcus aureus, 55 µg/mL (≈ 115 µM); with Bacillus cereus it was 65 µg/mL (≈ 136 µM); with Aspergillus niger it was 40 µg/mL (≈ 83.6 µM); in the experiment with Candida albicans it was 50 µg/mL (≈ 104 µM). Moreover, the MIC with Pseudomonas aeruginosa turned out to be 90 µg/mL (≈ 188 µM).
For the compound `CC(=O)Nc1ccc(S(=O)(=O)NCc2nc3ccccc3c(=O)n2-c2ccc(C)cc2)cc1`, the MIC worked out at 115 µg/mL (≈ 249 µM) with Klebsiella pneumoniae; 85 µg/mL (≈ 184 µM) with Escherichia coli; 95 µg/mL (≈ 205 µM) with Staphylococcus aureus; 105 µg/mL (≈ 227 µM) with Bacillus cereus; 70 µg/mL (≈ 151 µM) in the experiment on Aspergillus niger; 85 µg/mL (≈ 184 µM) in the experiment with Candida albicans. Further, the MIC in the experiment with Pseudomonas aeruginosa turned out to be 105 µg/mL (≈ 227 µM).
As for `Cc1ccccc1-n1c(C)nc2ccccc2c1=O` [METHAQUALONE], the minimum inhibitory concentration (MIC) was 115 µg/mL (≈ 459 µM) in the experiment on Klebsiella pneumoniae; 75 µg/mL (≈ 300 µM) in the experiment on Escherichia coli; 125 µg/mL (≈ 499 µM) in the experiment with Staphylococcus aureus; 140 µg/mL (≈ 559 µM) in the experiment with Bacillus cereus; 90 µg/mL (≈ 360 µM) with Aspergillus niger; 125 µg/mL (≈ 499 µM) in the experiment with Candida albicans. Further, the minimal inhibitory concentration (MIC) in the experiment on Pseudomonas aeruginosa came to 100 µg/mL (≈ 400 µM).
As to `Nc1ccc(S(=O)(=O)NCc2nc3ccccc3c(=O)n2-c2ccc([N+](=O)[O-])cc2)cc1`, the minimum inhibitory concentration (MIC) in the experiment with Klebsiella pneumoniae is 75 µg/mL (≈ 166 µM); in the experiment with Escherichia coli, 55 µg/mL (≈ 122 µM); in the experiment with Staphylococcus aureus, 65 µg/mL (≈ 144 µM); in the experiment with Bacillus cereus it was 75 µg/mL (≈ 166 µM); in the experiment with Aspergillus niger, 45 µg/mL (≈ 99.7 µM); with Candida albicans it was 55 µg/mL (≈ 122 µM). Moreover, the MIC in the experiment with Pseudomonas aeruginosa turned out to be 60 µg/mL (≈ 133 µM).
Consider `Nc1ccc(S(=O)(=O)NCc2nc3ccccc3c(=O)n2-c2ccccc2)cc1`, for which the minimal inhibitory concentration (MIC) stood at 95 µg/mL (≈ 234 µM) with Klebsiella pneumoniae; 80 µg/mL (≈ 197 µM) in the experiment on Escherichia coli; 85 µg/mL (≈ 209 µM) in the experiment on Staphylococcus aureus; 95 µg/mL (≈ 234 µM) in the experiment with Bacillus cereus; 90 µg/mL (≈ 221 µM) in the experiment on Aspergillus niger; 100 µg/mL (≈ 246 µM) in the experiment with Candida albicans. For the same compound, the MIC in the experiment with Pseudomonas aeruginosa was 85 µg/mL (≈ 209 µM).
Consider `Nc1ccc(S(=O)(=O)NCc2nc3ccccc3c(=O)n2-c2ccc(F)cc2)cc1`, for which the minimum inhibitory concentration (MIC) is 85 µg/mL (≈ 200 µM) in the experiment with Klebsiella pneumoniae; 55 µg/mL (≈ 130 µM) in the experiment on Escherichia coli; 60 µg/mL (≈ 141 µM) in the experiment on Staphylococcus aureus; 55 µg/mL (≈ 130 µM) in the experiment on Bacillus cereus; 45 µg/mL (≈ 106 µM) with Aspergillus niger; 60 µg/mL (≈ 141 µM) in the experiment with Candida albicans. The MIC in the experiment with Pseudomonas aeruginosa turned out to be 65 µg/mL (≈ 153 µM).
On to `Nc1ccc(S(=O)(=O)NCc2nc3ccccc3c(=O)n2Nc2ccccc2)cc1`, for which the MIC in the experiment with Klebsiella pneumoniae came to 115 µg/mL (≈ 273 µM); in the experiment with Escherichia coli, 90 µg/mL (≈ 214 µM); in the experiment on Staphylococcus aureus, 100 µg/mL (≈ 237 µM); with Bacillus cereus, 105 µg/mL (≈ 249 µM); in the experiment on Aspergillus niger, 105 µg/mL (≈ 249 µM); with Candida albicans, 115 µg/mL (≈ 273 µM). The MIC in the experiment on Pseudomonas aeruginosa stood at 95 µg/mL (≈ 225 µM).
On to `Nc1ccc(S(=O)(=O)NCc2nc3ccccc3c(=O)n2-c2cccc([N+](=O)[O-])c2)cc1`, for which the MIC turned out to be 90 µg/mL (≈ 199 µM) in the experiment with Klebsiella pneumoniae; 60 µg/mL (≈ 133 µM) in the experiment with Escherichia coli; 70 µg/mL (≈ 155 µM) with Staphylococcus aureus; 85 µg/mL (≈ 188 µM) in the experiment on Bacillus cereus; 50 µg/mL (≈ 111 µM) in the experiment with Aspergillus niger; 60 µg/mL (≈ 133 µM) in the experiment with Candida albicans. In addition, the MIC in the experiment on Pseudomonas aeruginosa turned out to be 65 µg/mL (≈ 144 µM).
Take `CC(=O)Nc1ccc(S(=O)(=O)NCc2nc3ccccc3c(=O)n2-c2ccccc2Cl)cc1`: the MIC was found to be 100 µg/mL (≈ 207 µM) in the experiment on Klebsiella pneumoniae; 70 µg/mL (≈ 145 µM) with Escherichia coli; 70 µg/mL (≈ 145 µM) with Staphylococcus aureus; 100 µg/mL (≈ 207 µM) with Bacillus cereus; 60 µg/mL (≈ 124 µM) in the experiment with Aspergillus niger; 75 µg/mL (≈ 155 µM) in the experiment on Candida albicans. For the same compound, the MIC with Pseudomonas aeruginosa stood at 75 µg/mL (≈ 155 µM).
